In patent US7910344B2, “Proteins having tyrosinase activity” (Valtion teknillinen tutkimuskeskus, priority 2005, dated 2011):
Like-named read-outs stand apart in the source and are kept apart here. Each block holds one molecule with its values, some of them ahead of it.

Tests used:
TYR2 [1] = assay: Substrate specificity by oxygen consumption measurements, purified TYR2; type: biochemical, Trichoderma reesei
Description: (§1) pH optimum for the tyrosinase was studied by oxygen consumption measurements. Measurements were performed with a single channel oxygen meter (Precision sensing GmbH, Germany) containing fiber-optic oxygen minisensors with measurement range 0-100% oxygen. L-Dopa in 15 mM concentration, dissolved in 0.1 M sodium phosphate buffer, pH 7.0, was used as substrate. Reactions were carried out with 1.8 ml substrate solution and with 4.3 μg of the purified T. reesei tyrosinase. Three different buffers were used according to their buffer capacity. McIlvaine buffer was used within a pH range of 2-7, Tris-HCl buffer (50 mM) within a pH range 7-9 and borate buffer (12.5 mM) within a pH range of 8-9.5. […] In the measurements with Tris-HCl buffer in pH 8, 8.5 and 9.0 also a blank test without enzyme addition was performed to correct the effect of auto-oxidation in results.
(§2) Substrate specificity of the tyrosinase on various selected substrates was studied by oxygen consumption measurements. The concentration of substrates was 2.5 mM, and the compounds were dissolved in 0.1 M sodium phosphate buffer, pH 7.0. Reactions were carried out with 1.8 ml of 2.5 mM substrate solutions and with 24 μg of the purified TYR2. As a reference the substrate specificity assays were also determined for the commercial Agaricus bisporus crude tyrosinase (Sigma). Respectively, 50 μg of said mushroom tyrosinase was used in the assays. Activity of TYR2 and Agaricus tyrosinase were analyzed on selected model peptides containing tyrosine in different positions in the peptide chain (Table 5). Oxidation of L-/DL-D-Dopa and -tyrosine by TYR2 and Agaricus tyrosinase was also measured (Table 6).

[2] = tested on: Agaricus bisporus crude tyrosinase (Sigma); assay: Substrate specificity by oxygen consumption measurements, commercial Agaricus tyrosinase; type: biochemical; settings: for Agaricus tyr Relative oxygen consumption (%): mono-phenols
Description: as §1, §2

Trichoderma reesei = assay: Plate test screening for tyrosinase activity from T. reesei; type: cell-based; settings: T. reesei on Malt Extract agar with indicator
Description: The indicators for tyrosinase activity screening were selected according to literature. L-Tyrosine, p-cresol, p-coumaric acid, tyramine, 3-hydroxy antranilic acid, and catechin were used in concentrations shown in Table 1. Trichoderma reesei was grown on Malt Extract agar containing the selected indicators (Table 1) (Difco) at 37° C. for 48 days. Possible colour changes on the plates were observed visually.

TYR2 [3] = assay: Tyrosinase activity assay monitoring dopachrome formation at 475 nm; type: biochemical, Trichoderma reesei
Description: The activity was also measured on L-tyrosine (Sigma) in concentration of 2 mM. Both activity assays were carried out in 0.1 M sodium phosphate buffer (pH 7.0) at 25° C. monitoring dopachrome formation at 475 nm. The molar extinction coefficient ε 3400 M^−1 cm^−1 (Robb, 1984) was used. Measurements were carried out by using a two-beam spectrophotometer (Lambda 20, Perkin-Elmer, Über-lingen, Germany). Activities were expressed as nanokatals.
The result was also confirmed by determining the enzyme activity on L-Dopa and L-tyrosine by following oxygen consumption in enzymatic reaction. […] The effect of SDS (Sigma) on tyrosinase activity was measured using different concentrations of SDS in the activity assay.

[4] = mono-phenols, in relation to L-tyrosine, 2.5 mM substrate, pH 7.0, 24 μg TYR2
[5] = in relation to L-tyrosine, 2.5 mM substrate, pH 7.0, 50 μg mushroom tyrosinase
[6] = L-/DL-/D-tyrosine, L-tyrosine = 100
[7] = di-peptides, in relation to L-tyrosine, 2.5 mM substrate, pH 7.0
[8] = di- and tri-phenolic compounds, in relation to L-Dopa, 2.5 mM substrate, pH 7.0, 24 μg TYR2
[9] = di- and tri-phenolic compounds, in relation to L-Dopa, 2.5 mM substrate, pH 7.0, 50 μg mushroom tyrosinase

Molecule: O=C(O)C=Cc1ccc(O)cc1 [p-Coumaric acid]
- TYR2 Relative oxygen consumption (%) (TYR2 [1]; [4]): 390%
- Agaricus tyr Relative oxygen consumption (%) [2, 5]: 0%

Molecule: Oc1ccccc1 [Phenol]
- TYR2 Relative oxygen consumption (%) (TYR2 [1]; [4]): 121%
- Agaricus tyr Relative oxygen consumption (%) [2, 5]: 85%

Molecule: Cc1ccc(O)cc1 [p-Cresol]
- TYR2 Relative oxygen consumption (%) (TYR2 [1]; [4]): 172%
- Agaricus tyr Relative oxygen consumption (%) [2, 5]: 104%

Molecule: NCCc1ccc(O)cc1 [Tyramine]
- TYR2 Relative oxygen consumption (%) (TYR2 [1]; [4]): 42%
- Reaction with indicator in plate test (Trichoderma reesei): clear positive reactions
- Agaricus tyr Relative oxygen consumption (%) [2, 5]: 85%

Molecule: CCCCCCCCCCCCOS(=O)(=O)[O-].[Na+] [SDS, sodium dodecyl sulfate]
- Tyrosinase activity left in presence of SDS (TYR2 [3]; 0.5 mM SDS in the activity assay): 50%

Molecule: Oc1ccc(S)cc1 [4-Mercaptophenol]
- TYR2 Relative oxygen consumption (%) (TYR2 [1]; [4]): 0%
- Agaricus tyr Relative oxygen consumption (%) [2, 5]: 0%

Molecule: Oc1ccccc1O [Pyrocatechol]
- TYR2 Relative oxygen consumption (%) (TYR2 [1]; [8]): 88%
- Agaricus tyrosinase Relative oxygen consumption (%) [2, 9]: 328%

Molecule: Catechin
- Reaction with indicator in plate test (Trichoderma reesei): clear positive reactions

Molecule: Nc1ccc(O)cc1 [4-Aminophenol]
- TYR2 Relative oxygen consumption (%) (TYR2 [1]; [4]): 8%
- Agaricus tyr Relative oxygen consumption (%) [2, 5]: 9%

Continued, in another order:

- Agaricus tyr Relative oxygen consumption (%) [2, 5]: 0%
Molecule: COc1cc(/C=C/C(=O)O)ccc1O [Ferulic acid]
- TYR2 Relative oxygen consumption (%) (TYR2 [1]; [4]): 0%

- Agaricus tyr Relative oxygen consumption (%) [2, 5]: 0%
Molecule: O=C(O)C=Cc1ccccc1O [o-Coumaric acid]
- TYR2 Relative oxygen consumption (%) (TYR2 [1]; [4]): 0%

- Reaction with indicator in plate test (Trichoderma reesei): clear positive reactions
- Agaricus tyrosinase Relative oxygen consumption (%) [2]: 100%
- Agaricus tyrosinase Relative oxygen consumption (%) [2, 7]: 100%
- Agaricus tyr Relative oxygen consumption (%) [2, 5]: 100%
Molecule: N[C@@H](Cc1ccc(O)cc1)C(=O)O [L-Tyrosine]
- TYR2 Relative oxygen consumption (%) (TYR2 [1]; [6]): 100%
- TYR2 Relative oxygen consumption (%) (TYR2 [1]; [7]): 100%
- TYR2 Relative oxygen consumption (%) (TYR2 [1]; [4]): 100%

- Agaricus tyrosinase Relative oxygen consumption (%) ([2]; L-/DL-/D-dopa, L-dopa = 100): 106%
Molecule: N[C@H](Cc1ccc(O)c(O)c1)C(=O)O [D-dopa]
- TYR2 Relative oxygen consumption (%) (TYR2 [1]; L-/DL-/D-dopa, L-dopa = 100): 18%

- Agaricus tyrosinase Relative oxygen consumption (%) [2]: 102%
Molecule: NC(Cc1ccc(O)cc1)C(=O)O (racemic) [DL-tyrosine]
- TYR2 Relative oxygen consumption (%) (TYR2 [1]; [6]): 40%

- Agaricus tyrosinase Relative oxygen consumption (%) [2]: 61%
Molecule: N[C@H](Cc1ccc(O)cc1)C(=O)O [D-tyrosine]
- TYR2 Relative oxygen consumption (%) (TYR2 [1]; [6]): 7%

- Agaricus tyrosinase Relative oxygen consumption (%) [2, 9]: 282%
Molecule: Oc1cc(O)c2c(c1)O[C@H](c1ccc(O)c(O)c1)[C@@H](O)C2 [(+)-Catechin hydrate]
- TYR2 Relative oxygen consumption (%) (TYR2 [1]; [8]): 220%

- Agaricus tyrosinase Relative oxygen consumption (%) [2, 9]: 248%
Molecule: Oc1cccc(O)c1O [Pyrogallol]
- TYR2 Relative oxygen consumption (%) (TYR2 [1]; [8]): 55%

- Agaricus tyrosinase Relative oxygen consumption (%) [2, 9]: 286%
Molecule: Oc1cc(O)c2c(c1)O[C@H](c1ccc(O)c(O)c1)[C@H](O)C2 [(−)-Epicatechin]
- TYR2 Relative oxygen consumption (%) (TYR2 [1]; [8]): 106%

- Agaricus tyr Relative oxygen consumption (%) [2, 5]: 157%
Molecule: OCCc1ccc(O)cc1 [p-Tyrosol]
- TYR2 Relative oxygen consumption (%) (TYR2 [1]; [4]): 346%

- Reaction with indicator in plate test (Trichoderma reesei): clear positive reactions
- Agaricus tyr Relative oxygen consumption (%) [2, 5]: 0%
Molecule: Nc1c(O)cccc1C(=O)O [3-Hydroxyanthranilic acid]
- TYR2 Relative oxygen consumption (%) (TYR2 [1]; [4]): 0%

- Agaricus tyrosinase Relative oxygen consumption (%) ([2]; L-/DL-/D-dopa, L-dopa = 100): 118%
Molecule: NC(Cc1ccc(O)c(O)c1)C(=O)O (racemic) [DL-dopa]
- TYR2 Relative oxygen consumption (%) (TYR2 [1]; L-/DL-/D-dopa, L-dopa = 100): 46%

- Agaricus tyrosinase Relative oxygen consumption (%) ([2]; L-/DL-/D-dopa, L-dopa = 100): 100%
- Agaricus tyrosinase Relative oxygen consumption (%) [2, 9]: 100%
Molecule: N[C@@H](Cc1ccc(O)c(O)c1)C(=O)O [L-Dopa, L-3,4 dihydroxyphenylalanine]
- TYR2 Relative oxygen consumption (%) (TYR2 [1]; L-/DL-/D-dopa, L-dopa = 100): 100%
- TYR2 Relative oxygen consumption (%) (TYR2 [1]; [8]): 100%
- Activity on L-Dopa compared with L-tyrosine (TYR2 [3]; 15 mM L-Dopa, 2 mM L-tyrosine, pH 7.0, 25° C.): approximately six times higher activity values than L-tyrosine
